Measured values: ChEMBL document CHEMBL1136919, “Synthesis and P2Y receptor activity of nucleoside 5'-phosphonate derivatives” (Bioorg Med Chem Lett, 2009)

Key:
Type in all cases: functional, cell-based
P2Y purinoceptor 6 [1] = molecular target: T1, P2Y purinoceptor 6 (Homo sapiens, UniProt Q15077); assay: Agonist activity at human P2Y6 receptor expressed in human 1321N1 cells coexpressing phospholipase C-activating G protein assessed as inositol phosphate production at 10 uM by scintillation proximity assay
T1 sequence (Q15077 whole entry): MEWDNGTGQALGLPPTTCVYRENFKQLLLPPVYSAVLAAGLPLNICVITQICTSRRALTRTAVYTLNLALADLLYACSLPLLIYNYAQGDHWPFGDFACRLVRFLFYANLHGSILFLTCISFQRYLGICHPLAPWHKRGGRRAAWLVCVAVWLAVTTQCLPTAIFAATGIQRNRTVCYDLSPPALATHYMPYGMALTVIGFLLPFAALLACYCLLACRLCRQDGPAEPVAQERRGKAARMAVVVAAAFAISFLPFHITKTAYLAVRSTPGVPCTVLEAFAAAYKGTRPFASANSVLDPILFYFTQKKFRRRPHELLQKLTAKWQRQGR

P2Y purinoceptor 2 [2] = molecular target: T2, P2Y purinoceptor 2 (Homo sapiens, UniProt P41231); assay: Agonist activity at human P2Y2 receptor expressed in human 1321N1 cells coexpressing phospholipase C-activating G protein assessed as inositol phosphate production by scintillation proximity assay
T2 sequence (P41231 whole entry): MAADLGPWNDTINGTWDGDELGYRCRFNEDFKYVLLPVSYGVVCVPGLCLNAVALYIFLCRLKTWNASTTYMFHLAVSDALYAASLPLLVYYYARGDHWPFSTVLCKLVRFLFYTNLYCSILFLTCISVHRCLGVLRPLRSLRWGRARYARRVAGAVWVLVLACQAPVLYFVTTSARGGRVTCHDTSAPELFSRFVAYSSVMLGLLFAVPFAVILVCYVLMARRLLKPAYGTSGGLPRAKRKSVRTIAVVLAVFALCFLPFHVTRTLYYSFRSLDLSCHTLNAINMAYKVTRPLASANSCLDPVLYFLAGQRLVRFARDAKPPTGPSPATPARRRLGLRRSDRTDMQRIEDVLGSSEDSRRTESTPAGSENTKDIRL

P2Y purinoceptor 6 [3] = molecular target: T1, P2Y purinoceptor 6; assay: Agonist activity at human P2Y6 receptor expressed in human 1321N1 cells coexpressing phospholipase C-activating G protein assessed as inositol phosphate production by scintillation proximity assay
P2Y purinoceptor 2 [4] = molecular target: T2, P2Y purinoceptor 2; assay: Agonist activity at human P2Y2 receptor expressed in human 1321N1 cells coexpressing phospholipase C-activating G protein assessed as inositol phosphate production by scintillation proximity assay relative to UTP
P2Y purinoceptor 2 [5] = molecular target: T2, P2Y purinoceptor 2; assay: Agonist activity at human P2Y2 receptor expressed in human 1321N1 cells coexpressing phospholipase C-activating G protein assessed as inositol phosphate production at 10 uM by scintillation proximity assay
[6] = molecular target: P2Y purinoceptor 4 (Homo sapiens) (UniProt P51582); assay: Agonist activity at human P2Y4 receptor expressed in human 1321N1 cells coexpressing phospholipase C-activating G protein assessed as inositol phosphate production at 10 uM by scintillation proximity assay
P2Y purinoceptor 4 (Homo sapiens), sequence (P51582 whole entry): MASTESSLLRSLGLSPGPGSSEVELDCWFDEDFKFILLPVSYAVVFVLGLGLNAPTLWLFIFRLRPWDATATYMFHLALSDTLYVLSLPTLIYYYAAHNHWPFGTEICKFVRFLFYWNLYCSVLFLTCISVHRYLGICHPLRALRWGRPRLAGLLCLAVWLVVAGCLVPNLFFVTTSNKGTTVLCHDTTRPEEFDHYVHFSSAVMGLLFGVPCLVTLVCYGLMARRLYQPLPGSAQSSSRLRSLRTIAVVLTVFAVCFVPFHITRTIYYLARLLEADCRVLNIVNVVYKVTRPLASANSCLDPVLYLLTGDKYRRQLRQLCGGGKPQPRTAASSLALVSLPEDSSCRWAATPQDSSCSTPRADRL

## O=c1ccn([C@@H]2O[C@H](COP(=O)(O)OP(=O)(O)OP(=O)(O)O)[C@@H](O)[C@H]2O)c(=O)[nH]1
P2Y purinoceptor 6 [1]
  EC50: > 10000 nM

## O=c1ccn([C@@H]2O[C@H](CP(=O)(O)OP(=O)(O)O)[C@@H](O)[C@H]2O)c(=O)[nH]1
P2Y purinoceptor 2 [2]
  EC50: 3400 nM
P2Y purinoceptor 6 [3]
  EC50: 1900 nM
P2Y purinoceptor 2 [4]
  Activity: 50%

## O=c1ccn([C@@H]2O[C@H](COP(=O)(O)OP(=O)(O)C[C@H]3O[C@@H](n4ccc(=O)[nH]c4=O)[C@H](O)[C@@H]3O)[C@@H](O)[C@H]2O)c(=O)[nH]1
P2Y purinoceptor 2 [5]
  Emax: < 50%

## O=c1ccn([C@@H]2O[C@H](/C=C/P(=O)(O)OP(=O)(O)OP(=O)(O)O)[C@@H](O)[C@H]2O)c(=O)[nH]1
P2Y purinoceptor 2 [2]
  EC50: 1000 nM
[6]
  Emax: < 50%

## O=c1ccn([C@@H]2O[C@H](CP(=O)(O)OP(=O)(O)OP(=O)(O)O)[C@@H](O)[C@H]2O)c(=O)[nH]1
P2Y purinoceptor 2 [2]
  EC50: 8600 nM

## Nc1ncnc2c1ncn2[C@@H]1O[C@H](CP(=O)(O)OP(=O)(O)OP(=O)(O)O)[C@@H](O)[C@H]1O
P2Y purinoceptor 2 [2]
  EC50: 1400 nM
[6]
  Emax: < 50%

## O=c1ccn([C@@H]2O[C@H](CCP(=O)(O)O)[C@@H](O)[C@H]2O)c(=O)[nH]1
P2Y purinoceptor 2 [2]
  EC50: 1600 nM
P2Y purinoceptor 2 [4]
  Activity: < 50%
